Reference: US20250368666A1, “INDAZOLE COMPOUNDS” (TYRA BIOSCIENCES, INC., priority 2022, published 2025)
pIC50: −log10 of the molar value.

Experiments:
FGFR1 = biological target: T1, FGFR1 (Homo sapiens, UniProt P11362); test: Kinase binding assay (kinase-tagged T7 phage, affinity beads, qPCR), Kd; conditions: read-out: FGFR1 (Kd nM)
T1 construct: made in house; host or cells: E. coli (BL21-derived), T7 phage
Procedure, shortened: (§1)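 Kd obtained by Levenberg–Marquardt Hill-equation fit (slope −1) to qPCR-measured kinase retained on ligand-coated streptavidin beads.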

FGFR2 = biological target: T2, FGFR2 (Homo sapiens, UniProt P21802); test: as above; conditions: read-out: FGFR2 (Kd nM)
T2 construct: made in house; host or cells: E. coli (BL21-derived), T7 phage
T2 sequence (P21802 22-821): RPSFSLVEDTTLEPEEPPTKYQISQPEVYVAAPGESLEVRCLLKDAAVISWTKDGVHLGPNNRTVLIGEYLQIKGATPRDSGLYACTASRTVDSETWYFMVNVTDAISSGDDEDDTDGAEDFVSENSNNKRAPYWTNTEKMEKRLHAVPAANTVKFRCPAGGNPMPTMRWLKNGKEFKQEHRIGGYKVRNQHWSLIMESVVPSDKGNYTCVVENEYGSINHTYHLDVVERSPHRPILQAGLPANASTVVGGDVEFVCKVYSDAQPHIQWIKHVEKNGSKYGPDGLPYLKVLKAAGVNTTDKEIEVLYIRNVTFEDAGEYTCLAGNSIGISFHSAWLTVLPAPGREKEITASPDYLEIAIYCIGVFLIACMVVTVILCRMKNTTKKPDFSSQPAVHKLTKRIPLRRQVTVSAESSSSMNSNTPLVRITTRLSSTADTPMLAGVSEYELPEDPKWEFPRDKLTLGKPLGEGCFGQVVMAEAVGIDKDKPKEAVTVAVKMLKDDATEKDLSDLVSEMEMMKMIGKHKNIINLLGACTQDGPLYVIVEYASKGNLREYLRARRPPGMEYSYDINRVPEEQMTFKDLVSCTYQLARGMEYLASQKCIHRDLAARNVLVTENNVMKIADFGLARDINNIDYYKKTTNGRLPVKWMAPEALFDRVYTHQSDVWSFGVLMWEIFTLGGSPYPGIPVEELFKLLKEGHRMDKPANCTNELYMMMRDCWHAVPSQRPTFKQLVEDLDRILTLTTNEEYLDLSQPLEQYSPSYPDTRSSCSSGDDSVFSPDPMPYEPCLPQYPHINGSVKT
Procedure, shortened: as §1

FGFR3 = biological target: T3, FGFR3 (Homo sapiens, UniProt P22607); test: as above; conditions: read-out: FGFR3 (Kd nM)
T3 construct: made in house; host or cells: E. coli (BL21-derived), T7 phage
T3 sequence (P22607 23-806): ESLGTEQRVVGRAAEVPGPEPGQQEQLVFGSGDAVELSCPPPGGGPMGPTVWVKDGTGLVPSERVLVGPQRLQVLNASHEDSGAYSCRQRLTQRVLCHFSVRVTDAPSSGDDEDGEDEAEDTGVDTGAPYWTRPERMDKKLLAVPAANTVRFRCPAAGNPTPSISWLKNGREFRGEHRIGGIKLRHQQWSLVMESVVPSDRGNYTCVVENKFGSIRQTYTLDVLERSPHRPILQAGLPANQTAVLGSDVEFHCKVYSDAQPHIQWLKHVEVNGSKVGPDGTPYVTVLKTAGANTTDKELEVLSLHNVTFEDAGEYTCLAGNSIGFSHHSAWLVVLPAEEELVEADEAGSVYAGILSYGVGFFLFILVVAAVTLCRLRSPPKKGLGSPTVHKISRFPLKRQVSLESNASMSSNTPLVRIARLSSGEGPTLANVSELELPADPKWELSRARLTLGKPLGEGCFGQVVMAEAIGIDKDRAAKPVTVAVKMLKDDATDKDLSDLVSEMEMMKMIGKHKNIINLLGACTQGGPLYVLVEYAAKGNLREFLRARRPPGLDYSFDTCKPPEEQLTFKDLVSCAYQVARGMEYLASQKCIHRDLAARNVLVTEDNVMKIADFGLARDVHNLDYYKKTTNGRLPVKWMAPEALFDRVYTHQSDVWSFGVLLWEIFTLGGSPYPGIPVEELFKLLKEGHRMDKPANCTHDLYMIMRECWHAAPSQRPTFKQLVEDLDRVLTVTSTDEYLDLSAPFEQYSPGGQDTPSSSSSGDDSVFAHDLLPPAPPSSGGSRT
Procedure, shortened: as §1

FGFR3 (V555M) = biological target: T4, FGFR3 (V555M) (Homo sapiens, UniProt P22607, V555M); test: as above; conditions: V555M mutant; read-out: FGFR3 (V555M) (Kd nM)
T4 construct: made in house; host or cells: E. coli (BL21-derived), T7 phage
T4 sequence (P22607 23-806 V555M): as the sequence (P22607 23-806) above, with V533M counted along it
Procedure, shortened: as §1

FGFR4 = biological target: T5, FGFR4 (Homo sapiens, UniProt P22455); test: as above; conditions: read-out: FGFR4 (Kd nM)
T5 construct: made in house; host or cells: E. coli (BL21-derived), T7 phage
T5 sequence (P22455 22-802): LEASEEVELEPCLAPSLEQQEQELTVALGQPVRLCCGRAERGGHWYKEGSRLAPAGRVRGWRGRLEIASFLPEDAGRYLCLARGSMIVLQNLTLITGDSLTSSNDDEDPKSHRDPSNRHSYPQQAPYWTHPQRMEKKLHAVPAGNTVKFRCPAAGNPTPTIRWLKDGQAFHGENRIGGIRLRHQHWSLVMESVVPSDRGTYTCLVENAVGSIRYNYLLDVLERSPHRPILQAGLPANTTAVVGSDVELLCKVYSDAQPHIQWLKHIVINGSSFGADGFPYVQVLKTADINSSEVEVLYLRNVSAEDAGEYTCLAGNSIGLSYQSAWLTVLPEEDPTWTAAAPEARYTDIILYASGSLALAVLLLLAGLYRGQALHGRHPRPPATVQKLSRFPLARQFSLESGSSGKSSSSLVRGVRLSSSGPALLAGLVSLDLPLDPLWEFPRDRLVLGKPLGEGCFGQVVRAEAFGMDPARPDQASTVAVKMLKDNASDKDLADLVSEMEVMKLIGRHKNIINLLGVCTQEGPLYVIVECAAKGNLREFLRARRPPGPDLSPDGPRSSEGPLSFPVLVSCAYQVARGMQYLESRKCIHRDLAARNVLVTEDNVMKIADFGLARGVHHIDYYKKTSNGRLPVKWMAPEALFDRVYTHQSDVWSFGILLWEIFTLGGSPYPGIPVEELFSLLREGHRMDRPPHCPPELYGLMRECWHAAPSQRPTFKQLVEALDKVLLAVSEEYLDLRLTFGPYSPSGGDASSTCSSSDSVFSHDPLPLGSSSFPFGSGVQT
Procedure, shortened: as §1

[1] = system: KATO-III cell line (FGFR2 amplification); test: Cancer cell line cell viability assay (Cell Titer-Glo), 72 hr; format: cell-based; conditions: Homo sapiens, KATO III
Procedure, shortened: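 Luminescent ATP read-out (Cell Titer-Glo 2.0) after compound exposure, normalised to DMSO-only wells. Dosing: 9 concentrations, 4-fold steps, top 3 μM, triplicates. IC50 derived by log(inhibitor) vs. response 4-parameter fit.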

[2] = system: KG-1 cell line (FGFR 1-fusion); test: as above; format: cell-based; conditions: Homo sapiens, KG-1, KG-1 cell line (FGFR1-fusion)
Procedure, shortened: (§2)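 Cells were seeded at 5,000–20,000 per well, then exposed to a 9-point, 4-fold dilution series from 3 μM top concentration in triplicate at 37° C. Exposure was 120 h for MDA-MB-453 and HuH7 and 72 h for KG-1 and RT112/84. Viability was read as ATP by Cell Titer-Glo 2.0, expressed as % of DMSO control, and fitted by 4-parameter IC50.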

[3] = system: RT112/84 cell line (FGFR3-fusion); test: as above; format: cell-based; conditions: Homo sapiens, RT112/84, RT112/84 cell line (FGFR3-fusion)
Procedure, shortened: as §2

[4] = system: HuH7 cell line (FGF19 amplification); test: Cancer cell line cell viability assay (Cell Titer-Glo), 120 hr; format: cell-based; conditions: Homo sapiens, Huh-7
Procedure, shortened: as §2

T1 sequence (P11362 22-822): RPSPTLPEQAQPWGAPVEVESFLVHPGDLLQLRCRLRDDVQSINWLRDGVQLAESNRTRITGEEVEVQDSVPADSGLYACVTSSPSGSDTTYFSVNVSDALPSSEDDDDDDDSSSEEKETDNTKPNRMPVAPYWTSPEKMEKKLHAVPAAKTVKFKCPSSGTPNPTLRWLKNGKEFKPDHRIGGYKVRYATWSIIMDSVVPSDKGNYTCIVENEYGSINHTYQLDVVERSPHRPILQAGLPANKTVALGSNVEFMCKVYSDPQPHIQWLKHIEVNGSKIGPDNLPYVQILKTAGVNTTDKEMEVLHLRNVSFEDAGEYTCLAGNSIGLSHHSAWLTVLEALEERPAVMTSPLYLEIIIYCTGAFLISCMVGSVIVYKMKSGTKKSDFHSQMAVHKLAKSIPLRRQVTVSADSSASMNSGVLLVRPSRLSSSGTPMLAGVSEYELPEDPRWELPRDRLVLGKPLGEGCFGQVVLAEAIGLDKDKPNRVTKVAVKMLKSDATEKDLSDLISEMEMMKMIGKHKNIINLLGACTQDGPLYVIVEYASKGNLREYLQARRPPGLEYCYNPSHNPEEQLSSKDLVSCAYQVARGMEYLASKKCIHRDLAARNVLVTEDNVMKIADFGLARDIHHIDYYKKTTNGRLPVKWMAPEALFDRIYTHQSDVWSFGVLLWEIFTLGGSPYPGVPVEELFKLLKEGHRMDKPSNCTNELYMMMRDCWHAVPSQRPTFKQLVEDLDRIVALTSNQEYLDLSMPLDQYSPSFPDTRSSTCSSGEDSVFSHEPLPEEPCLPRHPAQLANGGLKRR

Row | Compound | Kd (FGFR1) | Kd (FGFR2) | Kd (FGFR3) | Kd (FGFR3 (V555M)) | Kd (FGFR4) | pIC50 [1] | pIC50 [2] | pIC50 [3] | pIC50 [4]
1 | COc1cc2[nH]nc(-c3cnc(N4CC(C)(NCC(C)C)C4)c(C#N)c3)c2cc1O[C@H](C)c1c(Cl)cncc1Cl [Example 139, (R)-5-(5-(1-(3,5-dichloropyridin-4-yl)ethoxy)-6-methoxy-1H-indazol-3-yl)-2-(3-(isobutylamino)-3-methylazetidin-1-yl)nicotinonitrile] | 1 to 50 nM | 1 to 50 nM | 1 to 50 nM | 1 to 50 nM | 1 to 50 nM | 6.70 to 7.30 | 6.70 to 7.30 | 7.30 to 10.00 | 7.30 to 10.00
2 | CCCNC1(C)CN(c2ncc(-c3n[nH]c4cc(OC)c(O[C@H](C)c5c(Cl)cncc5Cl)cc34)cc2C#N)C1 [Example 146, 5-[5-[(1R)-1-(3,5-dichloro-4-pyridyl)ethoxy]-6-methoxy-1H-indazol-3-yl]-2-[3-methyl-3-(propylamino)azetidin-1-yl]pyridine-3-carbonitrile] | 1 to 50 nM | 1 to 50 nM | 1 to 50 nM | 1 to 50 nM | 1 to 50 nM | 6.70 to 7.30 | 6.70 to 7.30 | 7.30 to 10.00 | 7.30 to 10.00
3 | C=CCNC1(C)CN(c2ncc(-c3n[nH]c4cc(OC)c(O[C@H](C)c5c(Cl)cncc5Cl)cc34)cc2C#N)C1 [Example 147, (R)-2-(3-(allylamino)-3-methylazetidin-1-yl)-5-(5-(1-(3,5-dichloropyridin-4-yl)ethoxy)-6-methoxy-1H-indazol-3-yl)nicotinonitrile] | 1 to 50 nM | 1 to 50 nM | 1 to 50 nM | 1 to 50 nM | 1 to 50 nM | 6.70 to 7.30 | 6.70 to 7.30 | 7.30 to 10.00 | 7.30 to 10.00

The remaining lines, values ahead:

Row | Kd (FGFR1) | Kd (FGFR2) | Kd (FGFR3) | Kd (FGFR3 (V555M)) | Kd (FGFR4) | pIC50 [1] | pIC50 [2] | pIC50 [3] | pIC50 [4] | Compound
4 | 50 to 300 nM | 1 to 50 nM | 1 to 50 nM | 1 to 50 nM | 1 to 50 nM | 6.00 to 6.70 | 6.00 to 6.70 | 6.70 to 7.30 | 6.70 to 7.30 | C[C@@H](Oc1cc2c(-c3cnc(N4CC(C)(N5CCCC5)C4)c(C#N)c3)n[nH]c2cc1F)c1c(Cl)cncc1Cl [Example 135, (R)-5-(5-(1-(3,5-dichloropyridin-4-yl)ethoxy)-6-fluoro-1H-indazol-3-yl)-2-(3-methyl-3-(pyrrolidin-1-yl)azetidin-1-yl)nicotinonitrile]
5 | 1 to 50 nM | 1 to 50 nM | 1 to 50 nM | 1 to 50 nM | 1 to 50 nM | 6.70 to 7.30 | 6.70 to 7.30 | 7.30 to 10.00 | 7.30 to 10.00 | COc1cc2[nH]nc(-c3cnc(N4CC(C)(N)C4)c(C#N)c3)c2cc1O[C@H](C)c1c(Cl)cncc1Cl [Example 143, 2-(3-amino-3-methyl-azetidin-1-yl)-5-[5-[(1R)-1-(3,5-dichloro-4-pyridyl)ethoxy]-6-methoxy-1H-indazol-3-yl]pyridine-3-carbonitrile]
6 | 1 to 50 nM | 1 to 50 nM | 1 to 50 nM | 1 to 50 nM | 1 to 50 nM | 6.70 to 7.30 | 6.70 to 7.30 | 7.30 to 10.00 | 7.30 to 10.00 | CC[C@H](C)NC1(C)CN(c2ncc(-c3n[nH]c4cc(OC)c(O[C@H](C)c5c(Cl)cncc5Cl)cc34)cc2C#N)C1 [Example 144, 5-[5-[(1R)-1-(3,5-dichloro-4-pyridyl)ethoxy]-6-methoxy-1H-indazol-3-yl]-2-[3-methyl-3-[[(1S)-1-methylpropyl]amino]aze-tidin-1-yl]pyridine-3-carbonitrile]
7 | 1 to 50 nM | 1 to 50 nM | 1 to 50 nM | 1 to 50 nM | 1 to 50 nM | 6.70 to 7.30 | 6.70 to 7.30 | 7.30 to 10.00 | 7.30 to 10.00 | CC[C@@H](C)NC1(C)CN(c2ncc(-c3n[nH]c4cc(OC)c(O[C@H](C)c5c(Cl)cncc5Cl)cc34)cc2C#N)C1 [Example 145, 5-[5-[(1R)-1-(3,5-dichloro-4-pyridyl)ethoxy]-6-methoxy-1H-indazol-3-yl]-2-[3-methyl-3-[[(1R)-1-methylpropyl]amino]aze-tidin-1-yl]pyridine-3-carbonitrile]
